{"source": "patent US20150258197A1", "about": "“EUTECTIC ISOMETHEPTENE MUCATE” (TONIX PHARMA HOLDINGS LIMITED, priority 2014, published 2015)", "type_in_all_cases": "physicochemical", "key": {"[1]": {"test": "Excipient compatibility of racemic isometheptene mucate by DSC/XRPD (1:1 mixtures)", "conditions": "1:1 weight ratio, ground in agate mortar, DSC (XRPD for mannitol)", "experimental": "(§1) Thermal analytical techniques were used to assess the compatibility of a drug product containing racemic isometheptene mucate. The compatibility assessment was carried out between the racemic isometheptene mucate and a number of possible excipients in a 1:1 weight ratio. Based on the thermal events recorded for each component and for the mixtures, the analyses were carried out by investigating the peaks recorded by differential scanning calorimetry (DSC) in mixture between racemic isometheptene mucate and the excipients. Differences in thermal profiles between the single compound and the related mixture obtained after milling the products in an agate mortar were evaluated.\nAliquots of racemic isometheptene mucate and each excipient were weighed in a ratio of 1:1 (unless specified otherwise) and ground in an agate mortar. The homogeneous mixtures then were analyzed.\n(§2) The DSC heating curves were obtained with a TA 821 DSC Mettler instrument under the following conditions:\n(§3) Heating rate: 10° C./min Ambient: Nitrogen 30 mL/min Sample holder: normal open aluminum pan Temperature range: from 25° C. to 250° C. Instrument calibration: Indium sample purity 99.999%\n(§4) X-ray powder diffraction (XRPD) tests were performed with the ULTIMA IV instrument (Rigaku), laying the sample on a static sample holder. The X-ray focusing slit has a variable width, interlocked with the q value. The X-ray tube has a copper target, with a current intensity of 40 mA and a voltage of 40 kV. Radiation was generated by the Cockcroft-Walton method, and was constituted by K+1 (1.540562 Å) and Kα2 (1.544398 Å). The analytical conditions were:\n(§5) Fixed Time; sampling width 0.02 deg, scanning rate 1.3 s/step, 2 q range 3.35 deg and sample holder; amorphous glass equiangular 9200/2G, 0.2 mm deep. The sample was pressed with a glass plate."}, "[2]": {"test": "DSC/XRPD of 75:25 mixtures of (R)-isometheptene salts and β-mannitol", "conditions": "for Physical interaction with β-mannitol: 75:25 salt:mannitol, dry-granulated or wet-granulated, DSC confirmed by XRPD; for Eutectic formation with mannitol: (R)-isometheptene salts other than mucate, 75:25 with β-mannitol", "experimental": "Thermal analytical techniques were used to analyze mixtures of several (R)-isometheptene salts and β-mannitol in a ratio of 75:25. (R)-isometheptene salts tested were as follows: (R)-isometheptene maleate, (R)-isometheptene malate, and (R)-isometheptene tartrate. Based on the thermal events recorded for each component and for the mixtures, the analyses were carried out by investigating the peaks recorded by differential scanning calorimetry (DSC) in mixture between (R)-isometheptene mucate and the excipients. Differences in thermal profiles between the single compound and the related mixture were evaluated.\nAliquots of (R)-isometheptene salts and each excipient were weighed in a ratio of 1:1 (unless specified otherwise) and ground in an agate mortar with (wet-granulation) or without (dry-granulation) a small amount of water. The homogeneous mixtures then were analyzed.\nas §2, §3\nas §4, with “Kα1” for “K+1”\nas §5"}, "[3]": {"test": "Excipient compatibility of (R)-isometheptene mucate by DSC/XRPD (1:1 mixtures)", "conditions": "1:1 weight ratio, ground in agate mortar, DSC", "experimental": "as §1, with “mucate (API).” for “mucate.”\nAliquots of (R)-isometheptene mucate and each excipient were weighed in a ratio of 1:1 (unless specified otherwise) and ground in an agate mortar. The homogeneous mixtures then were analyzed.\nas §2, §3\nas §4, with “Kα1” for “K+1”\nas §5"}}, "data": [{"compound": "CCCCCCCCCCCCCCCCCC(=O)O", "note": "[Stearic acid]", "values": [{"measurement": "Excipient reactions with API (racemic isometheptene mucate), Mixture 1:1", "setting": "[1]", "value": "YES"}, {"measurement": "Excipient reactions with API (racemic isometheptene mucate), Mixture 1:1", "setting": "[1]; listed as stearic acid", "value": "physical interaction was observed"}]}, {"compound": "CN[C@H](C)CCC=C(C)C.O=C(O)/C=C\\C(=O)O", "note": "[(R)-isometheptene maleate]", "values": [{"measurement": "Physical interaction with β-mannitol", "setting": "[2]", "value": "No physical interaction was observed"}, {"measurement": "Eutectic formation with mannitol", "setting": "[2]", "value": "do not form a eutectic composition"}]}, {"compound": "OC[C@@H](O)[C@@H](O)[C@H](O)[C@H](O)CO", "note": "[Mannitol]", "values": [{"measurement": "Excipient reactions with API (racemic isometheptene mucate), Mixture 1:1", "setting": "[1]", "value": "Physical interaction (complex)"}, {"measurement": "Excipient reactions with API (racemic isometheptene mucate), Mixture 1:1", "setting": "[1]; listed as mannitol", "value": "Physical interaction was observed"}]}, {"compound": "OC[C@@H](O)[C@@H](O)[C@H](O)[C@H](O)CO", "note": "[Mannitol SD200]", "values": [{"measurement": "Excipient reactions with API (racemic isometheptene mucate), Mixture 1:1", "setting": "[1]; listed as mannitol SD200", "value": "Physical interaction was observed"}, {"measurement": "Excipient reactions with (R)-isometheptene mucate, Mixture 1:1", "setting": "[3]", "value": "Physical interaction (complex)"}, {"measurement": "Excipient reactions with (R)-isometheptene mucate, Mixture 1:1", "setting": "[3]; listed as mannitol SD200", "value": "Physical interaction was observed"}]}, {"compound": "Magnesium stearate", "values": [{"measurement": "Excipient reactions with API (racemic isometheptene mucate), Mixture 1:1", "setting": "[1]", "value": "YES"}, {"measurement": "Excipient reactions with API (racemic isometheptene mucate), Mixture 1:1", "setting": "[1]; listed as magnesium stearate", "value": "small physical interaction was observed"}, {"measurement": "Excipient reactions with (R)-isometheptene mucate, Mixture 1:1", "setting": "[3]", "value": "YES"}, {"measurement": "Excipient reactions with (R)-isometheptene mucate, Mixture 1:1", "setting": "[3]; listed as magnesium stearate", "value": "small physical interaction was observed"}]}, {"compound": "CN[C@H](C)CCC=C(C)C.O=C(O)C(O)C(O)C(=O)O", "note": "[(R)-isometheptene tartrate]", "values": [{"measurement": "Physical interaction with β-mannitol", "setting": "[2]", "value": "No physical interaction was observed"}, {"measurement": "Eutectic formation with mannitol", "setting": "[2]", "value": "do not form a eutectic composition"}]}, {"compound": "Isomalt", "values": [{"measurement": "Excipient reactions with API (racemic isometheptene mucate), Mixture 1:1", "setting": "[1]", "value": "No interaction reported"}, {"measurement": "Excipient reactions with (R)-isometheptene mucate, Mixture 1:1", "setting": "[3]", "value": "No interaction reported"}]}, {"compound": "CN[C@H](C)CCC=C(C)C.O=C(O)CC(O)C(=O)O", "note": "[(R)-isometheptene malate]", "values": [{"measurement": "Physical interaction with β-mannitol", "setting": "[2]", "value": "No physical interaction was observed"}, {"measurement": "Eutectic formation with mannitol", "setting": "[2]", "value": "do not form a eutectic composition"}]}]}
